Source: patent US20210177803A1, “NEW PHARMACEUTICAL USE FOR THE TREATMENT OF HEART FAILURE” (Novartis AG, priority 2018, published 2021)
Like-named read-outs stand apart in the source and are kept apart here.

Tests used:
[1] = tested on: patients hospitalized for acute HFrEF
Experimental: (§1) The starting dose and all subsequent doses were selected to optimize the highest tolerated dose based on a systolic blood pressure (SBP) algorithm.
(§2) Inclusion Criteria: • Patients ≥18 y of age with the capacity to provide written informed consent. • Currently hospitalized for a primary diagnosis of HF, including symptoms and signs of fluid overload. • Eligible patients will be randomized no earlier than 24 hours and up to ten days after presentation while still hospitalized as long as meet the following definition of stable status: • SBP≥100 mm Hg for the preceding 6 hours prior to randomization; no symptomatic hypotension • No increase (intensification) in i.v. diuretic dose within last 6 hours prior to randomization • No i.v. inotropic drugs for 24 hours prior to randomization • No i.v. vasodilators including nitrates within last 6 hours prior to randomization • Left ventricular EF 40% within the past 6 m (including current hospitalization) using echocardiography, multi gated acquisition scan (MUGA), CT scanning, MRI or ventricular angiography, provided no subsequent study documented an EF of >40% • Elevated NT-proBNP≥1600 pg/mL OR BNP≥400 pg/mL during current hospitalization.

NT-proBNP = tested on: NT-proBNP
Experimental: The study rational and design is described in by Velazquez E J, et al. .in Am.
as §1, §2

neprilysin = neprilysin (Homo sapiens, UniProt P08473); details: 200 mg LCZ696 b.i.d.; cited from earlier work
[2] = tested on: patients with HFrEF following hemodynamic stabilization after an episode of ADHF; details: for Proportion of patients achieving the target dose of 200 mg LCZ696 b.i.d.: 10 weeks after randomization; for Odds ratio (OR) for up-titration success to 200 mg b.i.d.: multivariate logistic regression
Excerpt: The study design comprises three Epochs (phases): the Screening Epoch; the Treatment Epoch defined as 10 weeks after Randomization; and 16-week Follow-up Epoch. Patients were stratified into three groups based on their pre-admission treatment status: (a) receiving an angiotensin-converting enzyme inhibitor (ACEI), (b) receiving an angiotensin receptor blocker (ARB), or (c) ACEI/ARB-naïve patients.
The study population consists of patients hospitalized for an episode of acute decompensation of heart failure who are diagnosed with CHF NYHA class II-to-IV and reduced ejection fraction (LVEF 40%). Patients can be either with first presentation (de novo), or acute decompensation of HF due to deterioration in patients with a prior history of (chronic) HF.
Inclusion Criteria: • 1. Patients hospitalized due to acute decompensated HF episode (ADHF) as primary diagnosis) and consistent Signs and Symptoms. • 2. Diagnosis of HF New York Heart Association class II-to-IV and reduced ejection fraction: Left ventricular ejection fraction 40% at Screening. • 3. […] Stabilized (while in the hospital) for at least 24 h leading to Randomization defined as: • No need for IV diuretics in the past 24 h prior to signing ICF • Systolic blood pressure (SBP) 110 mm Hg for at least 6 h prior to Randomization • 5. Meeting one of the following criteria: • Patients on any dose of ACEI or ARB at screening • ACEI/ARB naïve patients and patients not on ACEI or ARB for at least 4 weeks before screening.
The basis for up-titration toward the target dose was taking into consideration tolerability (i.e., incidence of hypotension, renal or hepatic impairment and hyperkalemia) based on clinical evaluation and laboratory assessment.

urinary cGMP = details: compared with enalapril, 1 week
Experimental: (§3) Circulating high-sensitivity cardiac troponin (hsTn) and soluble ST2 (sST2) reflect myocardial stress in patients with heart failure (HF). Production of cyclic guanosine 3′5′ monophosphate (cGMP) in response to activation of natriuretic peptide receptors reduces cardiac afterload and preload.
(§4) Ratios of geometric means (timepoint/baseline) were determined and compared as a ratio for sacubitril/valsartan vs. enalapril.

[3] = tested on: high-sensitivity cardiac troponin (hsTnT); details: compared with enalapril, 4 weeks
Experimental: as §3, §4

Chain of neprilysin (P08473 whole entry): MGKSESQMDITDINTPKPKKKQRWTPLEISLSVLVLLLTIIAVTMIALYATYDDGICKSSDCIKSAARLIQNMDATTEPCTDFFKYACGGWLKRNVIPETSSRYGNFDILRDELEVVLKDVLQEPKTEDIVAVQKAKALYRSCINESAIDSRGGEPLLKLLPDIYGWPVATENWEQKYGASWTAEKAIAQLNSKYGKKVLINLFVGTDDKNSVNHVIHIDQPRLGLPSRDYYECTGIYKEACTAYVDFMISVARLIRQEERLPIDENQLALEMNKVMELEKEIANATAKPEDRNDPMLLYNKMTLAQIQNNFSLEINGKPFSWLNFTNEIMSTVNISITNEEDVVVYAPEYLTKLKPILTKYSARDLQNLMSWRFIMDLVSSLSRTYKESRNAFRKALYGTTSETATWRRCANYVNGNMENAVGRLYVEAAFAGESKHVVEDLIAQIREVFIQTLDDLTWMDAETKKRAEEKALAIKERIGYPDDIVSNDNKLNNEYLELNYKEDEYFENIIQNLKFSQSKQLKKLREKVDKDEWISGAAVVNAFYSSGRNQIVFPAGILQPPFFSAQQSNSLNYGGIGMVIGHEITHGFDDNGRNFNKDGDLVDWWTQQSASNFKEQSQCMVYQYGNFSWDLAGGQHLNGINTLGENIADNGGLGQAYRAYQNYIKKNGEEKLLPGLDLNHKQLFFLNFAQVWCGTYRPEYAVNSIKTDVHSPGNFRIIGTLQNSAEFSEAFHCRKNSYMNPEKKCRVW

SMILES: CCCCC(=O)N(Cc1ccc(-c2ccccc2-c2nn[n-]n2)cc1)[C@H](C(=O)[O-])C(C)C.CCOC(=O)[C@H](C)C[C@@H](Cc1ccc(-c2ccccc2)cc1)NC(=O)CCC(=O)[O-].[Na+].[Na+].[Na+] [LCZ696, trisodium [3((1S,3R)-1-biphenyl-4-ylmethyl-3-ethoxycarbonyl-1-butylcarbamoyl) propionate-(S)-3′-methyl-2′-(pentanoyl{2″-(tetrazol-5-ylate)biphenyl-4′-ylmethyl}amino)butyrate]hemipentahydrate]
- Hyperkalemia ([1]; 8 weeks): 11.6%
- Symptomatic hypotension ([1]; 8 weeks): 10.0%
- Worsening renal function ([1]; 8 weeks): 13.6%
- Angioedema, HR ([1]; LCZ696 vs. Enalapril): 0.17
- Hyperkalemia, HR ([1]; LCZ696 vs. Enalapril): 1.25
- Symptomatic hypotension, HR ([1]; LCZ696 vs. Enalapril): 1.10
- Worsening renal function, HR ([1]; LCZ696 vs. Enalapril): 0.93
- Angioedema in patients who identified as black (in words) [1]: no angioedema
- Angioedema in patients who identified as black (in words) ([1]; listed as sacubitril-valsartan): no cases
- Angioedema events (number in words) ([1]; blinded adjudication): one
- Angioedema ([1]; blinded adjudication, 8 weeks): 0.2%
- Patients in whom the maximum target dose had been achieved ([1]; by the week 8 study visit): 56%
- Study drug prematurely discontinued prior to 8 weeks ([1]; excluding discontinuation due to death): 19.6%
- Tolerability (in words) ([1]; initiated after initial stabilization after an ADHF episode): well tolerated
- Ratio of time-averaged change in NT-proBNP from baseline to the geometric mean of weeks 4 and 8 (NT-proBNP; LCZ696 vs. Enalapril): 0.71
- Ratio of change in NT-proBNP from baseline (NT-proBNP; LCZ696 vs. enalapril, week 1): 0.76
- Share of maximal neprilysin inhibition delivered (neprilysin): approximately 90%
- Relative RR, primary endpoint (target dose 200 mg b.i.d.) ([2]; ACEI or ARB strata compared to naive): 1.01
- Patients who achieved the target dose ([2]; ACEI/ARB naïve patients): 48.3%
- RRR, achieved target dose ([2]; ACEI/ARB naïve vs prior ACEI/ARB use): 1.008
- Patients who achieved and maintained any dose of LCZ696 for at least 2 weeks leading to week 10 ([2]; both groups): More than 86%
- Subjects maintained on any dose at week 10 ([2]; both groups (ACEI/ARB naïve and not naïve)): 88%
- Patients able to achieve and maintain any dose at week 10 ([2]; de novo HF patients): 90%
- Patients who achieved the target dose ([2]; de novo HF patients): 56.0%
- RRR, achieved target dose ([2]; de novo HF vs prior HF diagnosis): 1.30
- Feasibility and tolerability of early initiation (in words) ([2]; in-hospital or shortly after discharge): feasible and overall well tolerated
- Proportion of patients achieving the target dose of 200 mg LCZ696 b.i.d. ([2]; post-discharge arm): 50.4%
- Patients who achieved and maintained any dose of LCZ696 for at least 2 weeks leading to week 10 ([2]; post-discharge initiation): 88.8%
- Patients who achieved and maintained either 100 mg b.i.d. or 200 mg b.i.d. for at least 2 weeks leading to week 10 ([2]; post-discharge initiation): 68%
- RRR, achieved and maintained 100 mg or 200 mg b.i.d. ([2]; pre- vs post-discharge): 0.919
- RRR, achieved and maintained any dose ([2]; pre- vs post-discharge): 0.973
- Relative risk ratio (RRR), achieving target dose 200 mg b.i.d. ([2]; pre- vs post-discharge, 10 weeks): 0.893
- Proportion of patients achieving the target dose of 200 mg LCZ696 b.i.d. ([2]; pre-discharge arm): 45.0%
- Patients who achieved and maintained any dose of LCZ696 for at least 2 weeks leading to week 10 ([2]; pre-discharge initiation): 86.4%
- Patients who achieved and maintained either 100 mg b.i.d. or 200 mg b.i.d. for at least 2 weeks leading to week 10 ([2]; pre-discharge initiation): 62.5%
- Odds ratio (OR) for up-titration success to 200 mg b.i.d. ([2]; predictor: assignment to pre- or post-discharge initiation): 1.21
- Odds ratio (OR) for up-titration success to 200 mg b.i.d. ([2]; predictor: prior use of an ACEI or ARB): 1.04
- Patients who achieved the target dose ([2]; subjects with a prior HF diagnosis): 44.8%
- Patients who achieved the target dose ([2]; subjects with prior ACEI/ARB use): 47.9%
- Serial urinary cGMP (in words) (urinary cGMP): increased
- Greater reduction in hsTnT [3]: 16%
